Results reported in patent US9278981B2, “Compounds and compositions for inhibiting the activity of ABL1, ABL2 and BCR-ABL1” (Novartis AG, priority 2012, dated 2016).

Legend:
ABL1 (64-515) [1] = target: T1, ABL1 (64-515) (Homo sapiens (Human), UniProt P00519); assay: Radio ABL1 (64-515) assay (radiometric filter-binding); type: biochemical
ABL1 (64-515) [2] = target: T1, ABL1 (64-515); assay: Caliper ABL1 (64-515) assay (microfluidic mobility shift); type: biochemical

T1 sequence (P00519 64-515): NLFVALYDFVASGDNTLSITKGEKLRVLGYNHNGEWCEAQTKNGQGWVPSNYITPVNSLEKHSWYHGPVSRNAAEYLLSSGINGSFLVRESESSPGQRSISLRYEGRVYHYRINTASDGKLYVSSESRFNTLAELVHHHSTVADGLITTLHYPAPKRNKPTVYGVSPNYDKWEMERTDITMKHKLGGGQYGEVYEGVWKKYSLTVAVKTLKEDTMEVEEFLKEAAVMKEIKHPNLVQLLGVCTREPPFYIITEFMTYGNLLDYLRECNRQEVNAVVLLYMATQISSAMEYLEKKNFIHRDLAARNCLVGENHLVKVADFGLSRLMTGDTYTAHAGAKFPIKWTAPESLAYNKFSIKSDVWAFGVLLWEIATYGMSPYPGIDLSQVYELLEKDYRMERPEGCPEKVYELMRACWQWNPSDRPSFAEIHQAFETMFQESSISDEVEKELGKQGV

SMILES | IC50 (ABL1 (64-515) [1]) [nM] | IC50 (ABL1 (64-515) [2]) [nM]
CC(C)(O)c1cc(F)cc(-c2cc(C(=O)Nc3ccc(OC(F)(F)F)cc3)cnc2N2CC[C@@H](O)C2)c1 [Example 60, (R)-5-(3-Fluoro-5-(2-hydroxypropan-2-yl)phenyl)-6-(3-hydroxypyrrolidin-1-yl)-N-(4-(trifluoromethoxy)phenyl)nicotinamide] | 4 | 6
O=C(Nc1ccc(SC(F)(F)F)cc1)c1cnc(N2CC[C@H](CO)C2)c(-c2cncc(F)c2)c1 [Example 190, (S)-5′-Fluoro-2-(3-(hydroxymethyl)pyrrolidin-1-yl)-N-(4-((trifluoromethyl)thio)phenyl)-[3,3′-bipyridine]-5-carboxamide] | 5.9 | 0.5
O=C(Nc1ccc(OC(F)(F)F)cc1)c1cnc(N2CC[C@@H](O)C2)c(-c2cnccc2F)c1 [Example 48, (R)-4′-Fluoro-2-(3-hydroxypyrrolidin-1-yl)-N-(4-(trifluoromethoxy)phenyl)-[3,3′-bipyridine]-5-carboxamide] | 4.2 | 0.8
CC(C)(O)C1CCN(c2ncc(C(=O)Nc3ccc(OC(F)(F)F)cc3)cc2-c2cncnc2)C1 (stereo not drawn) [Example 113, 6-(3-(2-Hydroxypropan-2-yl)pyrrolidin-1-yl)-5-(pyrimidin-5-yl)-N-(4-(trifluoromethoxy)phenyl)nicotinamide] | < 3 | 1.5
O=C(Nc1ccc(OC(F)(F)F)cc1)c1ccc(N2CC[C@@H](O)C2)c(-c2cccnc2)c1 [Example 5, (R)-4-(3-Hydroxypyrrolidin-1-yl)-3-(pyridin-3-yl)-N-(4-(trifluoromethoxy)phenyl)benzamide] | < 3 | 2.7
CN(CCO)c1ncc(C(=O)Nc2ccc(OC(F)(F)F)cc2)cc1-c1cncnc1 [Example 151, 6-((2-Hydroxyethyl)(methyl)amino)-5-(pyrimidin-5-yl)-N-(4-(trifluoromethoxy)phenyl)nicotinamide] | < 3 | < 0.13
O=C(Nc1ccc(OC(F)(F)F)cc1)c1cnc(N2CC[C@@H](O)C2)c(-c2cccnc2)c1 [Example 39, (R)-2-(3-Hydroxypyrrolidin-1-yl)-N-(4-(trifluoromethoxy)phenyl)-[3,3′-bipyridine]-5-carboxamide] | < 3 | 0.6
CCN(CCO)c1ncc(C(=O)Nc2ccc(SC(F)(F)F)cc2)cc1-c1cncc(F)c1 [Example 196, 2-(Ethyl(2-hydroxyethyl)amino)-5′-fluoro-N-(4-((trifluoromethyl)thio)phenyl)-[3,3′-bipyridine]-5-carboxamide] | 5.1 | 0.7
CC1(O)CN(c2ncc(C(=O)Nc3ccc(OC(F)(F)F)cc3)cc2-c2cncc(F)c2)C1 [Example 132, 5′-Fluoro-2-(3-hydroxy-3-methylazetidin-1-yl)-N-(4-(trifluoromethoxy)phenyl)-[3,3′-bipyridine]-5-carboxamide] | < 3 | 1.5
CN[C@H]1CCN(c2ncc(C(=O)Nc3ccc(OC(F)(F)F)cc3)cc2-c2cncnc2)C1 [Example 102, (S)-6-(3-(Methylamino)pyrrolidin-1-yl)-5-(pyrimidin-5-yl)-N-(4-(trifluoromethoxy)phenyl)nicotinamide] | < 3 | 2.3
Cc1ncc(-c2cc(C(=O)Nc3ccc(OC(F)(F)F)cc3)cnc2N2CC(CO)C2)cc1F [Example 140, 5′-Fluoro-2-(3-(hydroxymethyl)azetidin-1-yl)-6′-methyl-N-(4-(trifluoromethoxy)phenyl)-[3,3′-bipyridine]-5-carboxamide] | 4 | 0.4
O=C(Nc1ccc(OC(F)(F)F)cc1)c1ccc(N2CCOC2=O)c(-c2cncnc2)c1 [Example 117, 4-(2-Oxooxazolidin-3-yl)-3-(pyrimidin-5-yl)-N-(4-(trifluoromethoxy)phenyl)benzamide] | 0.4 | 5.5
O=C(Nc1ccc(OC(F)(F)F)cc1)c1cnc(N2CC[C@@H](O)C2)c(-c2cc(F)cnc2F)c1 [Example 49, (R)-2′,5′-Difluoro-2-(3-hydroxypyrrolidin-1-yl)-N-(4-(trifluoromethoxy)phenyl)-[3,3′-bipyridine]-5-carboxamide] | 5 | 3.5
CCN(CCO)c1ncc(C(=O)Nc2ccc(SC(F)(F)F)cc2)cc1-c1cncc(C#N)c1 [Example 197, 5′-Cyano-2-(ethyl(2-hydroxyethyl)amino)-N-(4-((trifluoromethyl)thio)phenyl)-[3,3′-bipyridine]-5-carboxamide] | 16 | 1.8
O=C(Nc1ccc(OC(F)(F)F)c(F)c1)c1cnc(N2CC[C@@H](O)C2)c(-c2cncc(F)c2)c1 [Example 199, (R)-5′-Fluoro-N-(3-fluoro-4-(trifluoromethoxy)phenyl)-2-(3-hydroxypyrrolidin-1-yl)-[3,3′-bipyridine]-5-carboxamide] | 3 | 1.2
CN(CCO)c1ncc(C(=O)Nc2ccc(OC(F)(F)Cl)cc2)cc1-c1cncc(F)c1 [Example 180, N-(4-(Chlorodifluoromethoxy)phenyl)-5′-fluoro-2-((2-hydroxyethyl)(methyl)amino)-[3,3′-bipyridine]-5-carboxamide] | 1 | 0.4
O=C(Nc1ccc(OC(F)(F)F)cc1)c1cnc(N2CC(CO)C2)c(-c2cncc(F)c2)c1 [Example 139, 5′-Fluoro-2-(3-(hydroxymethyl)azetidin-1-yl)-N-(4-(trifluoromethoxy)phenyl)-[3,3′-bipyridine]-5-carboxamide] | 5 | 0.6
O=C(Nc1ccc(OC(F)(F)F)cc1)c1cnc(N2CCCC2)c(-c2ccc(CO)nc2)c1 [Example 69, 6′-(Hydroxymethyl)-2-(pyrrolidin-1-yl)-N-(4-(trifluoromethoxy)phenyl)-[3,3′-bipyridine]-5-carboxamide] | < 3 | 0.5

The next lines start with the values.

IC50 (ABL1 (64-515) [1]) [nM] | IC50 (ABL1 (64-515) [2]) [nM] | SMILES
1 | 1.1 | O=C(Nc1ccc(OC(F)(F)F)cc1)c1cnc(N2Cc3cn[nH]c3C2)c(-c2cncnc2)c1 [Example 228]
10 | 1.3 | O=C(Nc1ccc(OC(F)(F)C(F)(F)F)cc1)c1cnc(N2CC[C@@H](O)C2)c(-c2cncc(F)c2)c1 [Example 221, (R)-5′-Fluoro-2-(3-hydroxypyrrolidin-1-yl)-N-(4-(perfluoroethoxy)phenyl)-[3,3′-bipyridine]-5-carboxamide]
3 | 1.1 | N#Cc1cncc(-c2cc(C(=O)Nc3ccc(SC(F)(F)F)c(F)c3)cnc2N2CC[C@@H](O)C2)c1 [Example 207, (R)-5′-Cyano-N-(3-fluoro-4-((trifluoromethyl)thio)phenyl)-2-(3-hydroxypyrrolidin-1-yl)-[3,3′-bipyridine]-5-carboxamide]
2 | 0.5 | N[C@@H]1[C@H]2CN(c3ncc(C(=O)Nc4ccc(OC(F)(F)Cl)cc4)cc3-c3cncnc3)C[C@@H]12 [Example 253]
3 | 0.7 | N[C@]1(C(F)(F)F)CCN(c2ncc(C(=O)Nc3ccc(OC(F)(F)Cl)cc3)cc2-c2cncnc2)C1 [Example 289, (R)-6-(3-Amino-3-(trifluoromethyl)pyrrolidin-1-yl)-N-(4-(chlorodifluoromethoxy)phenyl)-5-(pyrimidin-5-yl)nicotinamide]
2 | 0.7 | Cc1ncc(-c2cc(C(=O)Nc3ccc(OC(F)(F)Cl)cc3)cnc2N2C[C@H](O)[C@@H](O)C2)cn1 [Example 262]
4 | 2.6 | CN(C)C1CN(c2ncc(C(=O)Nc3ccc(OC(F)(F)F)cc3)cc2-c2cncc(F)c2)C1 [Example 239, 2-(3-(Dimethylamino)azetidin-1-yl)-5′-fluoro-N-(4-(trifluoromethoxy)phenyl)-[3,3′-bipyridine]-5-carboxamide]
0.2 | 10 | N[C@]1(C(F)(F)F)CCN(c2ncc(C(=O)Nc3ccc(OC(F)(F)F)cc3)cc2-c2cncnc2)C1 [Example 223, (R)-6-(3-Amino-3-(trifluoromethyl)pyrrolidin-1-yl)-5-(pyrimidin-5-yl)-N-(4-(trifluoromethoxy)phenyl)nicotinamide]
7 | 16 | Cc1ccc(-c2cc(C(=O)Nc3ccc(OC(F)(F)C(F)F)cc3)cnc2N2CC[C@@H](O)C2)cn1 [Example 213, (R)-2-(3-Hydroxypyrrolidin-1-yl)-6′-methyl-N-(4-(1,1,22-tetrafluoroethoxy)phenyl)-[3,3′-bipyridine]-5-carboxamide]
8 | 8.1 | O=C(Nc1ccc(S(=O)(=O)C(F)(F)F)cc1)c1cnc(N2CC[C@@H](O)C2)c(-c2cncnc2)c1 [Example 214, (R)-6-(3-Hydroxypyrrolidin-1-yl)-5-(pyrimidin-5-yl)-N-(4-((trifluoromethyl)sulfonyl)phenyl)nicotinamide]
6 | 4.5 | O=C(Nc1ccc(OC(F)(F)F)cc1)c1cnc(N2CC[C@@H](O)C2)c(-c2cc(F)nc(F)c2)c1 [Example 242, (R)-2′,6′-Difluoro-2-(3-hydroxypyrrolidin-1-yl)-N-(4-(trifluoromethoxy)phenyl)-[3,4′-bipyridine]-5-carboxamide]
< 0.1 | 0.6 | O=C(Nc1ccc(OC(F)(F)Cl)cc1)c1cnc(N2Cc3cn[nH]c3C2)c(-c2cncnc2)c1 [Example 254]
1 | 1.3 | O=C(Nc1ccc(OC(F)(F)Cl)cc1)c1cnc(N2C[C@H](CO)[C@@H](O)C2)c(-c2cncnc2)c1 (relative stereo) [Example 250, N-(4-(Chlorodifluoromethoxy)phenyl)-6-(trans-3-hydroxy-4-(hydroxymethyl)pyrrolidin-1-yl)-5-(pyrimidin-5-yl)nicotinamide]
2 | 1.2 | O=C(Nc1ccc(OC(F)(F)Cl)cc1)c1cnc(N2CC[C@@H](O)C2)c(-c2cc(F)nc(F)c2)c1 [Example 273]
3 | < 0.13 | Cc1ncncc1-c1cc(C(=O)Nc2ccc(OC(F)(F)Cl)cc2)cnc1N1CC[C@@H](O)C1 [Example 263]
